Where two headings read alike, the source gives them in different places.

In this assay the test system is Human dermal fibroblasts from Friedreich's Ataxia patients. Put plainly: Rescue of FRDA fibroblasts stressed by BSO (Calcein AM viability). To be noted: FRDA fibroblasts GM04078, 1 mM BSO, 48 h. The format is cell-based. As for the experimental part:
An initial screen was performed to identify compounds effective for the amelioration of redox disorders. Test samples, 4 reference compounds (idebenone, decylubiquinone, Trolox and alpha-tocopherol), and solvent controls were tested for their ability to rescue FRDA fibroblasts stressed by addition of L-buthionine-(S,R)-sulfoximine (BSO), as described in Jauslin et al., Hum. Mol. Genet. 11(24):3055 (2002), Jauslin et al., FASEB J. 17:1972-4 (2003), and International Patent Application WO 2004/003565. […] This specific BSO-mediated cell death can be prevented by administration of antioxidants or molecules involved in the antioxidant pathway, such as alpha-tocopherol, selenium, or small molecule glutathione peroxidase mimetics. However, antioxidants differ in their potency, i.e. the concentration at which they are able to rescue BSO-stressed FRDA fibroblasts.
MEM (a medium enriched in amino acids and vitamins, catalog no. 1-31F24-I) and Medium 199 (M199, catalog no. 1-21F22-I) with Earle's Balanced Salts, without phenol red, were purchased from Bioconcept. Fetal Calf Serum was obtained from PAA Laboratories. Basic fibroblast growth factor and epidermal growth factor were purchased from PeproTech. Penicillin-streptomycin-glutamine mix, L-buthionine (S,R)-sulfoximine, (+)-alpha-tocopherol, decylubiquinone, and insulin from bovine pancreas were purchased from Sigma. Trolox (6-Hydroxy-2,5,7,8-tetramethylchromane-2-carboxylic acid) was obtained from Fluka. Idebenone was obtained from Chemo Iberica. Calcein AM was purchased from Anaspec. Cell culture medium was made by combining 125 ml M199 EBS, 50 ml Fetal Calf Serum, 100 U/ml penicillin, 100 microgram/ml streptomycin, 2 mM glutamine, 10 microgram/ml insulin, 10 ng/ml EGF, and 10 ng/ml bFGF; MEM EBS was added to make the volume up to 500 ml. A 10 mM BSO solution was prepared by dissolving 444 mg BSO in 200 ml of medium (Invitrogen, Carlsbad, Ca.) with subsequent filter-sterilization. During the course of the experiments, this solution was stored at +4° C. The cells were obtained from the Coriell Cell Repositories (Camden, N.J.; repository number GM04078) and grown in 10 cm tissue culture plates. Every third day, they were split at a 1:3 ratio.
The test samples were supplied in 1.5 ml glass vials. The compounds were diluted with DMSO, ethanol or PBS to result in a 5 mM stock solution. Once dissolved, they were stored at −20° C. Reference antioxidants (idebenone, decylubiquinone, alpha-tocopherol and Trolox) were dissolved in DMSO.
Test samples were screened according to the following protocol:
A culture with FRDA fibroblasts was started from a 1 ml vial with approximately 500,000 cells stored in liquid nitrogen. Cells were propagated in 10 cm cell culture dishes by splitting every third day in a ratio of 1:3 until nine plates were available. Once confluent, fibroblasts were harvested. For 54 micro titer plates (96 well-MTP) a total of 14.3 million cells (passage eight) were re-suspended in 480 ml medium, corresponding to 100 microliters medium with 3,000 cells/well. The remaining cells were distributed in 10 cm cell culture plates (500,000 cells/plate) for propagation. The plates were incubated overnight at 37° C. in a atmosphere with 95% humidity and 5% CO2 to allow attachment of the cells to the culture plate.
10% DMSO (242.5 microliters) was added to a well of the microtiter plate. The test compounds were unfrozen, and 7.5 microliters of a 5 mM stock solution was dissolved in the well containing 242.5 microliters of 10% DMSO, resulting in a 150 micromolar master solution. Serial dilutions from the master solution were made. The period between the single dilution steps was kept as short as possible (generally less than 30 seconds). At least 4 hours after attachment into MTP, cells were then treated with the various compound dilutions.
Plates were kept overnight in the cell culture incubator. […]

The mark [1] stands for this setting: Homo sapiens, average, compounds of the invention, read-out: Ec50 Average.

By EC50 is commonly meant the concentration that produces a half-maximal response. For `Cc1c(C)c2c(c(C)c1O)CCC(C)(C(=O)O)O2` (stereo not drawn) [Trolox, 6-Hydroxy-2,5,7,8-tetramethylchromane-2-carboxylic acid], the concentration for a half-maximal effect (EC50) (Homo sapiens, first of three experiments, read-out: EC50 Value 1) was 9000 nM.

With `COC1=C(OC)C(=O)C(CCCCCCCCCCO)=C(C)C1=O` [Idebenone], the EC50 (Homo sapiens, third of three experiments, read-out: EC50 Value 3) is 1000 nM.

In the case of `O=c1ccc2nc3ccc(C(F)(F)F)cc3sc-2c1` [Compound 3], the EC50 under setting [1] was 28 nM.

For `Cc1c(C)c2c(c(C)c1O)CC[C@@](C)(CCC[C@H](C)CCC[C@H](C)CCCC(C)C)O2` [alpha-tocopherol], the EC50 is 300 nM (average of three values, control compounds, read-out: EC50 Average); 400 nM (first of three experiments, read-out: EC50 Value 1); 150 nM (second of three experiments, read-out: EC50 Value 2); 350 nM (third of three experiments, read-out: EC50 Value 3).

For `Cc1cc(=O)c(C)c2sc3ccccc3nc1-2` [Compound 1], under setting [1], the EC50 was 3 nM.

In the case of `CN(C)c1ccc2nc3ccc(=O)cc-3sc2c1` [Compound 2], under setting [1], the EC50 was 3 nM.

These data come from US9868711B2, “Phenazine-3-one and phenothiazine-3-one derivatives for treatment of oxidative stress disorders” (BioElectron Technology Corporation, priority 2013, dated 2018).
